Measurements published in ChEMBL document CHEMBL2331144, “Synthesis and anticancer activity of analogues of phenstatin, with a phenothiazine A-ring, as a new class of microtubule-targeting agents” (Bioorg Med Chem Lett, 2013).

Columns and labels:
KM12 = test: Growth inhibition of human KM12 cells at 10 uM after 48 hrs by sulforhodamine B assay; assay type: functional; settings: KM12, 48 h, read-out: GI
786-0 = test: Growth inhibition of human 786-0 cells at 10 uM after 48 hrs by sulforhodamine B assay; assay type: functional; settings: 786-0, 48 h, read-out: GI
[1] = Growth inhibition of human NCI-ADR-RES cells at 10 uM after 48 hrs by sulforhodamine B assay; assay type: functional; settings: read-out: GI
NCI-H522 = test: Growth inhibition of human NCI-H522 cells at 10 uM after 48 hrs by sulforhodamine B assay; assay type: functional; settings: NCI-H522, 48 h, read-out: GI
UO-31 = test: Growth inhibition of human UO31 cells at 10 uM after 48 hrs by sulforhodamine B assay; assay type: functional; settings: UO-31, 48 h, read-out: GI
HL-60(TB) = test: Growth inhibition of human HL-60(TB) cells at 10 uM after 48 hrs by sulforhodamine B assay; assay type: functional; settings: HL-60, 48 h, read-out: GI
RXF 393 = test: Growth inhibition of human RXF393 cells at 10 uM after 48 hrs by sulforhodamine B assay; assay type: functional; settings: RXF 393, 48 h, read-out: GI
RPMI-8226 = test: Growth inhibition of human RPMI8226 cells at 10 uM after 48 hrs by sulforhodamine B assay; assay type: functional; settings: RPMI-8226, 48 h, read-out: GI
T47D = test: Growth inhibition of human T47D cells at 10 uM after 48 hrs by sulforhodamine B assay; assay type: functional; settings: read-out: GI
UACC-62 = test: Growth inhibition of human UACC62 cells at 10 uM after 48 hrs by sulforhodamine B assay; assay type: functional; settings: UACC-62, 48 h, read-out: GI
HOP-92 = test: Growth inhibition of human HOP92 cells at 10 uM after 48 hrs by sulforhodamine B assay; assay type: functional; settings: HOP-92, 48 h, read-out: GI
COLO 205 = test: Growth inhibition of human COLO205 cells at 10 uM after 48 hrs by sulforhodamine B assay; assay type: functional; settings: COLO 205, 48 h, read-out: GI
MDA-MB-435 = test: Growth inhibition of human MDA-MB-435 cells at 10 uM after 48 hrs by sulforhodamine B assay; assay type: functional; settings: MDA-MB-435, 48 h, read-out: GI
MDA-MB-468 = test: Growth inhibition of human MDA-MB-468 cells at 10 uM after 48 hrs by sulforhodamine B assay; assay type: functional; settings: MDA-MB-468, 48 h, read-out: GI
PC-3 = test: Growth inhibition of human PC3 cells at 10 uM after 48 hrs by sulforhodamine B assay; assay type: functional; settings: PC-3, 48 h, read-out: GI
Malme-3M = test: Growth inhibition of human MALME-3M cells at 10 uM after 48 hrs by sulforhodamine B assay; assay type: functional; settings: read-out: GI
LOX IMVI = test: Growth inhibition of human LOXIMVI cells at 10 uM after 48 hrs by sulforhodamine B assay; assay type: functional; settings: read-out: GI
MCF7 = test: Growth inhibition of human MCF7 cells at 10 uM after 48 hrs by sulforhodamine B assay; assay type: functional; settings: MCF7, 48 h, read-out: GI
MDA-MB-231 = test: Growth inhibition of human MDA-MB-231 cells at 10 uM after 48 hrs by sulforhodamine B assay; assay type: functional; settings: MDA-MB-231, 48 h, read-out: GI
SNB-75 = test: Growth inhibition of human SNB75 cells at 10 uM after 48 hrs by sulforhodamine B assay; assay type: functional; settings: SNB-75, 48 h, read-out: GI
OVCAR-4 = test: Growth inhibition of human OVCAR4 cells at 10 uM after 48 hrs by sulforhodamine B assay; assay type: functional; settings: OVCAR-4, 48 h, read-out: GI
SF-295 = test: Growth inhibition of human SF295 cells at 10 uM after 48 hrs by sulforhodamine B assay; assay type: functional; settings: SF-295, 48 h, read-out: GI
HCT-116 = test: Growth inhibition of human HCT116 cells at 10 uM after 48 hrs by sulforhodamine B assay; assay type: functional; settings: HCT-116, 48 h, read-out: GI
A498 = test: Growth inhibition of human A498 cells at 10 uM after 48 hrs by sulforhodamine B assay; assay type: functional; settings: A498, 48 h, read-out: GI
HCT-15 = test: Growth inhibition of human HCT15 cells at 10 uM after 48 hrs by sulforhodamine B assay; assay type: functional; settings: HCT-15, 48 h, read-out: GI
MOLT-4 = test: Growth inhibition of human MOLT4 cells at 10 uM after 48 hrs by sulforhodamine B assay; assay type: functional; settings: MOLT-4, 48 h, read-out: GI
CAKI-1 = test: Growth inhibition of human CAKI-1 cells at 10 uM after 48 hrs by sulforhodamine B assay; assay type: functional; settings: CAKI-1, 48 h, read-out: GI
SK-MEL-5 = test: Growth inhibition of human SK-MEL-5 cells at 10 uM after 48 hrs by sulforhodamine B assay; assay type: functional; settings: SK-MEL-5, 48 h, read-out: GI
CCRF-CEM = test: Growth inhibition of human CCRF-CEM cells at 10 uM after 48 hrs by sulforhodamine B assay; assay type: functional; settings: read-out: GI
HOP-62 = test: Growth inhibition of human HOP62 cells at 10 uM after 48 hrs by sulforhodamine B assay; assay type: functional; settings: HOP-62, 48 h, read-out: GI
Ovis aries = species: Ovis aries; test: Inhibition of sheep brain tubulin polymerization at 100 uM using DAPI by fluorimetry
K562 = test: Growth inhibition of human K562 cells at 10 uM after 48 hrs by sulforhodamine B assay; assay type: functional; settings: K562, 48 h, read-out: GI
SR = test: Growth inhibition of human SR cells at 10 uM after 48 hrs by sulforhodamine B assay; assay type: functional; settings: read-out: GI

| Compound | inhibition of growth at 10 µM (KM12) [%] | inhibition of growth at 10 µM (786-0) [%] | inhibition of growth at 10 µM [1] [%] | inhibition of growth at 10 µM (NCI-H522) [%] | inhibition of growth at 10 µM (UO-31) [%] | inhibition of growth at 10 µM (HL-60(TB)) [%] | inhibition of growth at 10 µM (RXF 393) [%] | inhibition of growth at 10 µM (RPMI-8226) [%] | inhibition of growth at 10 µM (T47D) [%] | inhibition of growth at 10 µM (UACC-62) [%] | inhibition of growth at 10 µM (HOP-92) [%] | inhibition of growth at 10 µM (COLO 205) [%] | inhibition of growth at 10 µM (MDA-MB-435) [%] | inhibition of growth at 10 µM (MDA-MB-468) [%] | inhibition of growth at 10 µM (PC-3) [%] | inhibition of growth at 10 µM (Malme-3M) [%] | inhibition of growth at 10 µM (LOX IMVI) [%] | inhibition of growth at 10 µM (MCF7) [%] | inhibition of growth at 10 µM (MDA-MB-231) [%] | inhibition of growth at 10 µM (SNB-75) [%] | also measured |
| --- | --- | --- | --- | --- | --- | --- | --- | --- | --- | --- | --- | --- | --- | --- | --- | --- | --- | --- | --- | --- | --- |
| O=C(c1cc2cc(F)ccc2[nH]1)N1c2ccccc2Sc2ccccc21 | 1.7 | 11.2 | 15.6 | 0 | 21.6 | 1.3 | 7.7 | 5.8 | 10.1 | 25.6 | 4.2 | 0 | 3.2 | 11.6 | 44.7 | 3.9 | 33.6 | 3.4 | 23.8 | 20.6 | inhibition of growth at 10 µM (OVCAR-4): 14.8%; inhibition of growth at 10 µM (SF-295): 5.7%; inhibition of growth at 10 µM (HCT-116): 46.1%; inhibition of growth at 10 µM (A498): 19.1%; inhibition of growth at 10 µM (HCT-15): 45.8%; inhibition of growth at 10 µM (MOLT-4): 31.8%; inhibition of growth at 10 µM (CAKI-1): 17.3%; inhibition of growth at 10 µM (SK-MEL-5): 24.5%; inhibition of growth at 10 µM (CCRF-CEM): 10.1%; inhibition of growth at 10 µM (HOP-62): 20.6%; inhibition (Ovis aries): 32%; inhibition of growth at 10 µM (K562): 34.6%; inhibition of growth at 10 µM (SR): 56.9% |
| CC(=O)c1cn(C(=O)N2c3ccccc3Sc3ccccc32)c2ccccc12 | 6.6 | 6.7 | 4.9 | 17 | 24.2 | 16.5 | 7 | 35.5 | 25.1 | 16 | 24.9 | 1.6 | 3 | 14 | 18.3 | 7.6 | 9 | 0 | 0 | 6 | inhibition of growth at 10 µM (OVCAR-4): 0%; inhibition of growth at 10 µM (SF-295): 0.9%; inhibition of growth at 10 µM (HCT-116): 6.8%; inhibition of growth at 10 µM (A498): 1.3%; inhibition of growth at 10 µM (HCT-15): 8.4%; inhibition of growth at 10 µM (MOLT-4): 16.9%; inhibition of growth at 10 µM (CAKI-1): 14%; inhibition of growth at 10 µM (SK-MEL-5): 8.5%; inhibition of growth at 10 µM (CCRF-CEM): 7.2%; inhibition of growth at 10 µM (HOP-62): 13.3%; inhibition of growth at 10 µM (K562): 26.2%; inhibition of growth at 10 µM (SR): 31.4% |
